The source of these data is article PMC3059997, “Exploring Indirect Sources of Human Exposure to Perfluoroalkyl Carboxylates (PFCAs): Evaluating Uptake, Elimination, and Biotransformation of Polyfluoroalkyl Phosphate Esters (PAPs) in the Rat” (Environmental Health Perspectives, 2010).

Holding throughout (type): in vivo, Sprague-Dawley rats
Series [1] can be described thus: Elimination experiment: monoPAP mixture by IV injection, analytes in whole blood. Particulars: for Cmax / Tmax: whole blood. Here is the method: (§1) This research was conducted under an animal use protocol approved by the University of Toronto Animal Care Committee. All animals were treated humanely and with regard for alleviation of suffering. Sprague-Dawley rats were obtained from Charles River Laboratories Inc. (Sherbrooke, QC, Canada) The animals were singly housed and exposed to a 12/12 hr light/dark cycle with food and water available ad libitum. Blood samples were collected from the saphenous vein using Microvette CB 300 vials (Sarstedt AG & Co., Montreal, QC, Canada) embedded with lithium-heparin as an anticoagulant. Whole-blood samples were stored at −20°C, and urine and feces samples were stored at 4°C.
(§2) Two groups of four 8-week-old male rats were administered a mixture of 4:2, 6:2, 8:2, and 10:2 diPAP or monoPAP, respectively, each at about 15 mg/kg, at 2 mL/kg by intravenous (IV) injection into the lateral tail vein. The dosing vehicle was 50:50 propylene glycol:water. Two control male rats were administered clean vehicle at 2 mL/kg [for details see Supplemental Material, Table 3 (doi:10.1289/ehp.1002409)].
(§3) Blood was collected from all animals 3 days before dosing to establish background contamination. For the uptake experiment, blood samples were collected at 1, 3, and 6 hr and 1, 2, 4, 7, 10, 14, 18, and 22 days after dosing. For the elimination experiment, blood samples were collected at 2, 4, and 6 hr and 1, 2, 4, 8, 11, 15, and 18 days after dosing. On the final sampling day, the animals were sacrificed by carbon dioxide asphyxiation, and about 10 mL of blood was collected by cardiac puncture into a BD Vacutainer embedded with lithium-heparin.
(§4) The compounds of interest fall into four categories: a) the diPAP and monoPAP parent compounds, b) the saturated and unsaturated fluorotelomer carboxylic acid (FTCA and FTUCA) metabolic intermediates, c) the FTOH-sulfate and FTOH-glucuronide phase II metabolites, and d) the final PFCA biotransformation products [see Supplemental Material, Table 1 (doi:10.1289/ehp.1002409)]. We analyzed these compounds in whole blood, urine, and feces samples. For full analytical details, see Supplemental Material. All PFCAs, FTCAs, FTUCAs, and phase II metabolites were quantified by internal calibration. Because internal standards were not available, monoPAPs and diPAPs were quantified by standard addition. We performed spike and recovery experments to validate the extraction and quantification techniques used (for details, see Supplemental Material).
(§5) Analyte and matrix specific limits of detection (LODs) and limits of quantification (LOQs) are provided in Supplemental Material (doi:10.1289/ehp.1002409). For the purpose of calculating means, values < LOD were assigned a value of zero, and values < LOQ but > LOD were used unaltered but are indicated by asterisks in figures and parentheses in tables. Values are presented using the arithmetic mean ± SE. Full data sets are available in Supplemental Material.

Series [2] can be described thus: Uptake experiment: diPAP mixture by oral gavage, analytes in whole blood. Particulars: for Cmax: values in parentheses < LOQ but > LOD. The method, then:
as §1
(§6) Two groups of four 8-week-old male rats were administered a mixture of 4:2, 6:2, 8:2, and 10:2 diPAP or monoPAP, respectively, each at about 50 mg/kg, at 4 mL/kg by oral gavage without prior fasting. […] Two control male rats were administered clean vehicle at 4 mL/kg [for details, see Supplemental Material, Table 3 (doi:10.1289/ehp.1002409)].
as §3, §4
(§7) Analyte and matrix specific limits of detection (LODs) and limits of quantification (LOQs) are provided in Supplemental Material (doi:10.1289/ehp.1002409). For the purpose of calculating means, values < LOD were assigned a value of zero, and values < LOQ but > LOD were used unaltered but are indicated by asterisks in figures and parentheses in tables. Values are presented using the arithmetic mean ± SE. Full data sets are available in Supplemental Material. […]

Series [3] can be described thus: Uptake experiment: monoPAP mixture by oral gavage, analytes in whole blood. Here is the method: as §1, §6, §3, §4, §5
Series [4] is described as follows: Elimination experiment: diPAP mixture by IV injection, analytes in whole blood. The method, then:
as §1, §2, §3, §4, §7

Series [5] can be described thus: Renal elimination: analytes in urine collected in metabolic cages. The method, then: as §1, with “4°C. […]” for “4°C.”
as §4, with “For full analytical details, see Supplemental Material.” left out, “We performed spike and recovery experments to validate the extraction and quantification techniques used (for details, see Supplemental Material).” left out

Where [6] appears, read: monoPAP gavage dose, whole blood.
The mark [7] stands for this setting: monoPAP gavage dose, whole blood, values in parentheses < LOQ but > LOD.
Where [8] appears, read: diPAP gavage dose, whole blood, mean ± SE.
Where [9] appears, read: diPAP IV dose, whole blood, mean ± SE, values in parentheses < LOQ but > LOD.

As to `O=C(O)CC(F)(F)C(F)(F)C(F)(F)C(F)(F)F` [4:2 FTCA], the “Detection in blood (time points)” value in series [1] (after monoPAP IV dosing) is on record as 2 hr postdosing; in series [2] (after diPAP oral gavage), 6 hr postdosing, but in only one animal.

For the compound `O=C(O)[C@H]1O[C@@H](OCCC(F)(F)C(F)(F)C(F)(F)C(F)(F)F)[C@H](O)[C@@H](O)[C@@H]1O` [4:2 FTOH-glucuronide], the “Detection in blood (time points)” value in series [3] (rat, in vivo, po) was “observed at 2 hr and 6 hr postdosing”; in series [1] (rat, in vivo, iv), “in the blood 2 hr after dosing”; in series [4] (rat, in vivo, iv), “in the blood 2 hr postdosing”. The Observation in urine entry in series [5] (rat, in vivo) is reported as “consistently observed”.

Turning to `O=S(=O)(O)OCCC(F)(F)C(F)(F)C(F)(F)C(F)(F)F` [4:2 FTOH-sulfate], the “Detection in blood (time points)” value is reported as “in the blood 2 hr after dosing” in series [1] (after monoPAP IV dosing) and “in the blood 2 hr postdosing” in series [4] (after IV diPAP dosing). Moreover, the Observation in urine result in series [5] (urine samples from all dosing regimes) is “consistently observed”.

With `O=C(O)C=C(F)C(F)(F)C(F)(F)C(F)(F)F` [4:2 FTUCA], the “Detection in blood (time points)” value is given as 2 hr postdosing in series [1] (rat, in vivo, iv) and 6 hr postdosing, but in only one animal in series [2] (rat, in vivo, po).

On to `O=C(O)CCC(F)(F)C(F)(F)C(F)(F)C(F)(F)C(F)(F)F` [5:3 FTCA], for which the “Detection in blood (time points)” value in series [3] (after monoPAP oral gavage) is “present in all of the samples from 2 hr to 2 days postdosing”; in series [1] (after monoPAP IV dosing), “observed in the 2, 4, and 6-hr time points”; in series [4] (after IV diPAP dosing) it was “in the samples from 2 hr to 2 days postdosing”.

As to `O=C(O)CC(F)(F)C(F)(F)C(F)(F)C(F)(F)C(F)(F)C(F)(F)F` [6:2 FTCA], the “Detection in blood (time points)” value is “blood samples taken 2, 4, and 6 hr postdosing” in series [3] (after monoPAP oral gavage); 2 hr postdosing in series [1] (after monoPAP IV dosing); 6 hr postdosing, but in only one animal in series [2] (after diPAP oral gavage).

As for `O=C(O)[C@H]1O[C@@H](OCCC(F)(F)C(F)(F)C(F)(F)C(F)(F)C(F)(F)C(F)(F)F)[C@H](O)[C@@H](O)[C@@H]1O` [6:2 FTOH-glucuronide], the “Detection in blood (time points)” value in series [3] (rat, in vivo, po) was “observed at 2 hr and 6 hr postdosing”.

Consider `O=C(O)C=C(F)C(F)(F)C(F)(F)C(F)(F)C(F)(F)C(F)(F)F` [6:2 FTUCA], for which the “Detection in blood (time points)” value in series [1] (rat, in vivo, iv) is “observed in the 2, 4, and 6-hr time points”; in series [2] (rat, in vivo, po), 6 hr postdosing, but in only one animal.

On to `O=C(O)CCC(F)(F)C(F)(F)C(F)(F)C(F)(F)C(F)(F)C(F)(F)C(F)(F)F` [7:3 FTCA], for which, in series [3] (after monoPAP oral gavage), the “Detection in blood (time points)” value is given as “present in all of the samples from 2 hr to 2 days postdosing”.

As to `O=C(O)CC(F)(F)C(F)(F)C(F)(F)C(F)(F)C(F)(F)C(F)(F)C(F)(F)C(F)(F)F` [8:2 FTCA], the “Detection in blood (time points)” value in series [3] (after monoPAP oral gavage) is “blood samples taken 2, 4, and 6 hr postdosing”; in series [2] (after diPAP oral gavage), 6 hr postdosing, but in only one animal.

On to `O=S(=O)(O)OCCC(F)(F)C(F)(F)C(F)(F)C(F)(F)C(F)(F)C(F)(F)C(F)(F)C(F)(F)F` [8:2 FTOH-sulfate], for which, in series [3] (after monoPAP oral gavage), the “Detection in blood (time points)” value is “frequently detected between 6 hr and 2 days postdosing”.

As for `O=C(O)CC(F)(F)C(F)(F)C(F)(F)C(F)(F)C(F)(F)C(F)(F)C(F)(F)C(F)(F)C(F)(F)C(F)(F)F` [10:2 FTCA], the “Detection in blood (time points)” value in series [2] (after diPAP oral gavage) is given as “present in the blood at the 6-hr time point”; in series [4] (after IV diPAP dosing) it was “only in the sample collected 2 days after dosing”.

As to `O=S(=O)(O)OCCC(F)(F)C(F)(F)C(F)(F)C(F)(F)C(F)(F)C(F)(F)C(F)(F)C(F)(F)C(F)(F)C(F)(F)F` [10:2 FTOH-sulfate], the “Detection in blood (time points)” value is “frequently detected between 6 hr and 2 days postdosing” in series [3] (after monoPAP oral gavage); “at 1 and 2 days after dosing” in series [2] (after diPAP oral gavage).

With `O=C(O)C(F)(F)C(F)(F)C(F)(F)C(F)(F)C(F)(F)C(F)(F)C(F)(F)C(F)(F)C(F)(F)F` [PFDA, perfluorodecanoate], the “Half-life” value came to 288 ± 190 h in series [3] (monoPAP gavage dose, about 50 mg/kg each, PFCA product in whole blood); 312 ± 220 h in series [1] (monoPAP IV dose, about 15 mg/kg each, PFCA product in whole blood); 264 ± 48 h in series [2] (diPAP gavage dose, about 50 mg/kg each, whole blood, mean ± SE); 240 ± 48 h in series [4] (diPAP IV dose, about 15 mg/kg each, whole blood, mean ± SE). For the same compound, the Tmax in series [3] (setting [6]) was found to be 2 days; in series [1] (monoPAP IV dose) it was 360 h; in series [2] (diPAP gavage dose, whole blood), 1 day days; in series [4] (diPAP IV dose, whole blood) it was 48 h. In addition, the “Cmax (ng/g)” value in series [3] (setting [7]) is on record as “(1.1 ± 0.27) ng/g”. In addition, the “Cmax” value in series [1] (monoPAP IV dose) was found to be 0.93 ± 0.20 ng/g; in series [2] (setting [8]), 3.6 ± 0.6 ng/g; in series [4] (setting [9]) it was 6.2 ± 1.2 ng/g.

Regarding `O=C(O)C(F)(F)C(F)(F)C(F)(F)C(F)(F)C(F)(F)C(F)(F)F` [PFHpA, perfluoroheptanoic acid], the Tmax was 1 days in series [3] (male, Sprague-Dawley, rat, in vivo, po, 50 mg/kg, monoPAP gavage dose, whole blood, read-out: Tmax (converted)); 24 h in series [1] (male, Sprague-Dawley, rat, in vivo, 15 mg/kg, monoPAP IV dose, read-out: Tmax (converted)); 24 h in series [2] (male, Sprague-Dawley, rat, in vivo, po, 50 mg/kg, diPAP gavage dose, whole blood, read-out: Tmax (converted)); 4 h in series [4] (male, Sprague-Dawley, rat, in vivo, 15 mg/kg, diPAP IV dose, whole blood, read-out: Tmax (converted)). In addition, the Cmax was found to be 9 ± 2.2 ng/g in series [3] (male, Sprague-Dawley, rat, in vivo, po, 50 mg/kg, monoPAP gavage dose, whole blood, values in parentheses < LOQ but > LOD, read-out: Cmax); 2.3 ± 0.7 ng/g in series [1] (male, Sprague-Dawley, rat, in vivo, 15 mg/kg, monoPAP IV dose, read-out: Cmax); 2.6 ± 0.5 ng/g in series [2] (male, Sprague-Dawley, rat, in vivo, po, 50 mg/kg, diPAP gavage dose, whole blood, mean ± SE, read-out: Cmax); 7.3 ± 0.6 ng/g in series [4] (male, Sprague-Dawley, rat, in vivo, 15 mg/kg, diPAP IV dose, whole blood, mean ± SE, values in parentheses < LOQ but > LOD, read-out: Cmax).

Regarding `O=C(O)C(F)(F)C(F)(F)C(F)(F)C(F)(F)C(F)(F)C(F)(F)C(F)(F)C(F)(F)F` [PFNA, perfluorononanoate], the Tmax in series [3] (setting [6]) came to 1 day days; in series [1] (monoPAP IV dose) it was 360 h; in series [2] (diPAP gavage dose, whole blood), 190 h; in series [4] (diPAP IV dose, whole blood), 360 h. In addition, the “Cmax (ng/g)” value in series [3] (setting [7]) was “(1.5 ± 0.09) ng/g”; in series [4] (setting [9]) it was “(4.1 ± 3.3) ng/g”. In addition, the maximum concentration (Cmax) in series [1] (monoPAP IV dose) stood at 2.3 ± 0.4 ng/g; in series [2] (setting [8]) it was 6.4 ± 5.2 ng/g.

For the compound `O=C(O)C(F)(F)C(F)(F)C(F)(F)C(F)(F)F` [PFPeA, perfluoropentanoic acid], the “Cmax” value in series [1] (monoPAP IV dose) was found to be 2.1 ± 0.8 ng/g; in series [4] (setting [9]), 7.1 ± 0.6 ng/g. The Tmax in series [1] (monoPAP IV dose) came to 6 h; in series [4] (diPAP IV dose, whole blood), 2 h.

The term Cmax denotes the highest concentration seen after dosing.
